Laboratory results published in PMC8273083 (ACS infectious diseases, 2021).

Tests used:
TgDHOD-VSSM = TgDHOD-VSSM (Toxoplasma gondii, UniProt Q8MXD1); assay: TgDHOD inhibition; assay type: biochemical
RH-strain T. gondii = assay: T. gondii growth inhibition, RH strain; assay type: cell-based; settings: Toxoplasma gondii, read-out: EC50 vs RH (nM)
[1] = test system: T222P strain of T. gondii; assay: microbe, parasite or virus in culture; assay type: cell-based, Toxoplasma gondii
[2] = test system: RH-strain T. gondii tachyzoites; assay: In vivo efficacy, murine model of systemic; design: species or system CF-1 mice; settings: 20 mg/kg orally once daily, in words

`O=C1C(O)=C([C@H]2CC[C@H](c3ccc(Cl)cc3)CC2)C(=O)c2ccccc21` [ATV, atovaquone] was tested, and the Ki (TgDHOD-VSSM) was 2720 nM.

With `COc1cc2[nH]c3cc(Oc4ccc(OC(F)(F)F)cc4)ccc3c(=O)c2cc1F` [Compound 27] the EC50 (RH-strain T. gondii) was 0.63 nM, the “effect of the T222P mutation on potency” value ([1]; T222P versus RH strain, in words) was “confers resistance” and the EC50 ([1]; Toxoplasma gondii, read-out: EC50 vs T222P (nM)) was 5.61 nM.

`CCc1nc(N)nc(N)c1-c1ccc(Cl)cc1` [pyrimethamine] was tested, and the survival benefit [2] was “no survival benefit”.
